According to US5840732A, “Imidazopyridine or imidazopyrimidine compounds, their production and use” (Takeda Chemical Industries Ltd., priority 1994, dated 1998):

Columns and labels:
[1] = tested on: ELAM-1 expression in human umbilical cord vascular endothelial cells; test: Inhibitory activity of adhesion molecule expression (ELAM-1, cell-ELISA); assay type: cell-based; conditions: TNFα 1 ng/ml, 37° C., 3 hours
Method: (§1) Inhibitory activity of adhesion molecule expression
(§2) Test method: To human umbilical cord vascular endothelial cells (purchased from Kurabo), cultured on gelatin-coated plates, compounds at various concentrations (test compounds) were added, followed by incubation at 37° C. for 15 minutes. Human tumor necrosis factor (TNFα, purchased from Genzyme) was then added to a final concentration of 1 ng/ml, followed by incubation at 37° C. for 3 hours for ELAM-1 expression or for 5 hours for ICAM-1 expression. After the reaction, cells were fixed with glutaraldehyde; the amounts of ELAM-1 and ICAM-1 expressed were determined by cell-ELISA. Anti-ELAM-1 antibody BBA-2 and an anti-ICAM-1 antibody BBA-4 were used as the first antibodies for the defection of ELAM-1 and ICAM-1, respectively, and horse radish peroxidase-labeled rabbit anti-mouse IgG antibody was used as the second antibody to determine the amount of adhesion molecules expressed on cells observed. The compound concentration at which 50% expression was expressed as the 50% inhibitory concentration (IC50), with the amount of expression in the absence of compounds as 100 and the amount of expression in the absence of TNFα as 0.

[2] = tested on: mouse skin allograft; test: Immunosuppressive action on mouse skin allograft; assay type: in vivo, mouse (BIOBR donors, C57BL/10 recipients); conditions: 16 days
Method: Immunosuppressive action on mouse skin allograft
Test method: Male BIOBR mice and C57BL/10 mice, both at 6 weeks of age, were used as donors and recipients, respectively, and Grafts were prepared by killing donors by cervical vertebral dislocation, collecting full-thickness skin grafts from tail using a razor and tweezers, and cutting them into about 5 mm square pieces. Each graft was kept standing on gauze soaked with physiological saline, and used as soon as the recipient was prepared. Transplantation beds were prepared as follows. The recipient's back was clipped using clippers and sterilized with Isodine. Under ether anesthesia, back skin was picked up with tweezers, and a full-thickness skin graft was cut out into an about 5 mm square piece using scissors. The graft was transferred to the transplantation bed thus prepared, and fixed firmly using bandage. At 7 days after surgery, the bandage was removed, and the mice were observed every day to determine the day of complete necrosis of the graft as the rejection day. The compound was intraperitoneally administered in suspension in 5% gum arabic for 16 days after surgery.

[3] = tested on: ICAM-1 expression in human umbilical cord vascular endothelial cells; test: Inhibitory activity of adhesion molecule expression (ICAM-1, cell-ELISA); assay type: cell-based; conditions: TNFα 1 ng/ml, 37° C., 5 hours
Method: as §1, §2

| IC50 [1] | IC50 [3] | SMILES | Mean Rejection Day ([2]; 50 mg/kg/day intraperitoneal, control 13.0) | Mean Rejection Day ([2]; 10 mg/kg/day intraperitoneal, control 13.5) |
| --- | --- | --- | --- | --- |
| 2900 nM | 4600 nM | CCCC=C1SC(=O)N(CCCCOc2cccn3ccnc23)C1=O [compound 22] | 18.8 days | – |
| 800 nM | 1100 nM | O=c1c(-c2ccccc2)c2n(c(=O)n1CCCCSc1cccc3nccn13)CCCS2(=O)=O [compound 24] | – | 27.0 days |
